Measurements taken from patent US9593305B2, “Differentiation of pluripotent stem cells” (Janssen Biotech, Inc., priority 2008, dated 2017).

System: H1 human embryonic stem cells
Assay: Analogue screening in combination with only GDF-8, SOX17 (Example 21, Tables 18 and 19)
Assay type: cell-based
Set-up: Sox17 Expression: % of positive control / Cell Number: % of positive control: tested at 2.5 µM
Conditions: compound in combination with GDF8; for Cell Number: Average Total Cell Number / Sox17 Expression: Average Total Intensity: four assay plates; for Cell Number: % of positive control / Sox17 Expression: % of positive control: relative to Activin A/Wnt3a of the same plate
Method: Briefly, clusters of H1 human embryonic stem cells were grown on reduced growth factor Matrigel™ (Invitrogen; Cat #356231)-coated tissue culture plastic. Cells were passaged using collagenase (Invitrogen; Cat #17104-019) treatment and gentle scraping, washed to remove residual enzyme, and plated with even dispersal at a ratio of 1:1 (surface area) on reduced growth factor […]™ (BD Biosciences; Cat #356231)-coated 96-well black plates (Packard ViewPlates; PerkinElmer; Cat #6005182) using volumes of 100 μl/well. Cells were allowed to attach and then recover log phase growth over a 1 to 3 day time period, feeding daily with MEF conditioned medium supplemented with 8 ng/ml bFGF (R&D Systems; Cat #233-FB). Plates were maintained at 37° C., 5% CO2 in a humidified box throughout the duration of assay.
Screening was conducted using a library of the analogue compounds. Compounds from this library were made available as 5 mM stocks in 96-well plate format, solubilized in 100% DMSO (Sigma; Cat #D2650) and stored at −80° C. The library compounds were further diluted to an intermediate concentration of 0.2 mM in 50 mM HEPES (Invitrogen; Cat #15630-080), 20% DMSO and stored at 4° C. Test conditions were performed in triplicate, feeding on alternating days over a four-day assay period. Assays were initiated by aspirating culture medium from each well followed by three washes in PBS (Invitrogen; Cat #14190) to remove residual growth factors. On the first day of assay, test volumes of 200 μl per well were added to each well using DMEM:F12 base medium (Invitrogen; Cat #11330-032) supplemented with 0.5% FCS (HyClone; Cat #SH30070.03) and 200 ng/ml GDF-8 (R&D Systems, Cat #788-G8) plus 2.5 μM compound. On the third day of assay, test volumes of 100 μl per well were added to each well using DMEM:F12 base medium supplemented with 2% FCS plus 200 ng/ml GDF-8 (R&D Systems, Cat #788-G8). Positive control samples contained the same base medium supplemented with FCS and 1000 ng/ml recombinant human activin A (PeproTech; Cat #120-14) throughout the four-day assay along with Wnt3a (20 ng/ml) on days 1 and 2. Negative control samples contained DMEM:F12 base medium supplemented with FCS, adding Wnt3a on days 1 and 2 but omitting treatment with activin A.
At the conclusion of four-days of culture, assay plates were washed twice with PBS (Invitrogen; Cat #14190), fixed with 4% paraformaldehyde (Alexis Biochemical; Cat #ALX-350-011) at room temperature for 20 minutes, then washed three times with PBS and permeabilized with 0.5% Triton X-100 (Sigma; Cat #T8760-2) for 20 minutes at room temperature. Cells were washed again three times with PBS and blocked with 4% chicken serum (Invitrogen; Cat #16110082) in PBS for 30 minutes at room temperature. Primary antibody (goat anti-human SOX17; R&D Systems; Cat #AF1924) was diluted 1:100 in 4% chicken serum and added to each well for one hour at room temperature. Alexa Fluor 488 conjugated secondary antibody (chicken anti-goat IgG; Molecular Probes; Cat #AZ1467) was diluted 1:200 in PBS and added to each sample well after washing three times with PBS. To counterstain nuclei, 4 μg/ml Hoechst 33342 (Invitrogen; Cat #H3570) was added for ten minutes at room temperature. Plates were washed once with PBS and left in 100 μl/well PBS for imaging.
Imaging was performed using an IN Cell Analyzer 1000 (GE Healthcare) utilizing the 51008bs dichroic for cells stained with Hoechst 33342 and Alexa Fluor 488. Exposure times were optimized from positive control wells and from untreated negative control wells stained with secondary antibody alone. Images from 15 fields per well were acquired to compensate for any cell loss during the bioassay and subsequent staining procedures. Measurements for total cell number and total SOX17 intensity were obtained from each well using IN Cell Developer Toolbox 1.7 (GE Healthcare) software. […]

COc1ccc(-c2ccnc(Nc3cc(Br)cc(CO)c3)n2)cc1CN(C)CCCNC(=O)OC(C)(C)C [Compound 5, 1,1-Dimethylethyl {3-[{[5-(2-{[3-bromo-5-(hydroxymethyl)phenyl]amino}pyrimidin-4-yl)-2-(methyloxy)phenyl]methyl}(methyl)amino]propyl}carbamate] was tested, and the “Cell Number: Average Total Cell Number” value was 3137, the “Sox17 Expression: Average Total Intensity” value was 1.30E+07 and the “Cell Number: % of positive control” value was 20.5%. For the same compound, the “Sox17 Expression: % of positive control” value was 3.9%.
With O=C(O)CCc1cccc(Nc2ncnc(-c3cccnc3)n2)c1 [Compound 1, 3-{3-[(4-Pyridin-3-yl-1,3,5-triazin-2-yl)amino]phenyl}propanoic acid] the “Cell Number: Average Total Cell Number” value was 3213, the “Sox17 Expression: Average Total Intensity” value was 6.48E+06 and the “Cell Number: % of positive control” value was 21.0%. For the same compound, the “Sox17 Expression: % of positive control” value was 1.9%.
With COc1ccc(CCCO)cc1-c1cnc(Nc2cccc(CNC(=O)OC(C)(C)C)c2)o1 [Compound 52, 1,1-Dimethylethyl {[3-({5-[5-(3-hydroxypropyl)-2-(methyloxy)phenyl]-1,3-oxazol-2-yl}amino)phenyl]methyl}carbamate] the “Cell Number: Average Total Cell Number” value was 4932, the “Sox17 Expression: Average Total Intensity” value was 1.99E+07 and the “Cell Number: % of positive control” value was 32.9%. The “Sox17 Expression: % of positive control” value was 5.8%.
In the case of CC(C)(C)OC(=O)NCCCCc1cc(-c2ncnc(Nc3cccc(CO)c3)n2)ccn1 [Compound 4, 1,1-Dimethylethyl {4-[4-(4-{[3-(hydroxymethyl)phenyl]amino}-1,3,5-triazin-2-yl)pyridin-2-yl]butyl}carbamate], the “Cell Number: Average Total Cell Number” value is reported as 3163, the “Sox17 Expression: Average Total Intensity” value is reported as 1.58E+07 and the “Cell Number: % of positive control” value is reported as 20.7%. The “Sox17 Expression: % of positive control” value was 4.7%.
For CC(C)(C)OC(=O)NCCc1ccc(Nc2nnc(-c3cccc(CCCO)c3)[nH]2)cc1 [Compound 51, 1,1-Dimethylethyl {2-[4-({5-[3-(3-hydroxypropyl)phenyl]-4H-1,2,4-triazol-3-yl}amino)phenyl]ethyl}carbamate], the “Cell Number: Average Total Cell Number” value was 4289, the “Sox17 Expression: Average Total Intensity” value was 1.70E+07 and the “Cell Number: % of positive control” value was 28.6%. For the same compound, the “Sox17 Expression: % of positive control” value was 4.9%.
In the case of CN1CCN(S(=O)(=O)c2ccc(Nc3cncc(-c4ccc(CN5CCC(O)CC5)s4)n3)cc2)CC1 [Compound 53, 1-({5-[6-({4-[(4-Methylpiperazin-1-yl)sulfonyl]phenyl}amino)pyrazin-2-yl]thiophen-2-yl}methyl)piperidin-4-ol], the “Cell Number: Average Total Cell Number” value is reported as 2783, the “Sox17 Expression: Average Total Intensity” value is reported as 6.36E+06 and the “Cell Number: % of positive control” value is reported as 18.2%. The “Sox17 Expression: % of positive control” value was 1.9%.
OCCc1cccc(Nc2ncnc(-c3cccnc3)n2)c1 [Compound 2, 2-{3-[(4-Pyridin-3-yl-1,3,5-triazin-2-yl)amino]phenyl}ethanol] was tested, and the “Cell Number: Average Total Cell Number” value was 4538, the “Sox17 Expression: Average Total Intensity” value was 2.95E+07 and the “Cell Number: % of positive control” value was 30.2%. For the same compound, the “Sox17 Expression: % of positive control” value was 8.6%.
With CN1CCC(C(=O)NCc2sc(Nc3cccc(C(F)(F)F)c3)nc2-c2cccnc2)CC1 [Compound 50, 1-Methyl-N-[(4-pyridin-3-yl-2-{[3-(trifluoromethyl)phenyl]amino}-1,3-thiazol-5-yl)methyl]piperidine-4-carboxamide] the “Cell Number: Average Total Cell Number” value was 2666, the “Sox17 Expression: Average Total Intensity” value was 1.48E+07 and the “Cell Number: % of positive control” value was 19.1%. For the same compound, the “Sox17 Expression: % of positive control” value was 4.8%.
